Laboratory results: publication PMC9884426, “A phase 1 clinical trial of the repurposable acetyllysine mimetic, n-methyl-2-pyrrolidone (NMP), in relapsed or refractory multiple myeloma” (Clinical Epigenetics, 2023)
Values joined by “and” are separate entries in the source; they are usually repeats but may differ in a detail not shown here. Equal values may be shown once.

Key:
[1] = test system: patients with relapsed/refractory multiple myeloma (RR–MM); assay: Phase 1 dose-escalation trial of oral NMP: safety, adverse events (CTCAE 4.03), DLT, MTD; assay type: in vivo
Procedure: (§1) This was a phase 1, open-label dose-escalation trial of orally administered NMP in patients with relapsed/refractory multiple myeloma (RR–MM). Eligible patients were ≥ 18 years old with Eastern Cooperative Oncology Group (ECOG) < 2 and histologically confirmed plasma cell myeloma defined by WHO 2008 criteria with measurable disease (defined by serum M-protein > 5 g/L, urine M-protein > 200 mg/24 h, involved serum free light chain > 100 mg/L or measurable soft tissue plasmacytoma). Patients were required to have relapsed following prior treatment and/or be refractory to or intolerant of both bortezomib and lenalidomide and must have undergone autologous stem cell transplant (unless deemed ineligible at investigator discretion). Exclusion criteria included: central nervous system involvement, active second malignancy within two years, uncontrolled medical conditions contraindicating an investigational agent due to inadequate organ function and concomitant exposure to anti-myeloma therapies.
(§2) The primary study endpoint was to determine the MTD of orally administered NMP in patients with RR–MM. Secondary endpoints included safety, PK analyses, IMWG defined response rate and exploratory immunological biomarkers. Adverse events were defined according to Common Terminology Criteria for Adverse Events (CTCAE version 4.03). Haematological DLTs were defined as grade 4 neutropenia unresponsive to G-CSF, grade 4 thrombocytopenia and febrile neutropenia. Non-haematological DLTs were grade 3 or higher and considered probably related to study drug and not attributable to disease progression and those resulting treatment delays greater than two weeks due to drug-related toxicity. Self-limited (< 24 h) gastrointestinal side effects (e.g. nausea, diarrhoea) responding to supportive measures were not classified as DLTs.
Pharmaceutical grade NMP stock solution (Ashland, Columbus, OH, USA) was diluted in ORA SWEET® SF (Medical Flavouring Systems, Vic, Australia) oral syrup vehicle and sterile water to a final concentration of 50 mg/mL and dispensed weekly in amber glass bottles for storage a room temperature. NMP was administered as a single morning dose on an empty stomach at least 30 min prior to food. Patients were dosed according to an ‘accelerated’ escalation schedule (one patient per dose level) in the absence of significant toxicity until a DLT was experienced and then in a 3 × 3 ‘standard’ dose-escalation phase. Intra-patient dose escalation at 100 mg increments was also permitted whereby the MTD had not been determined and the patient tolerated two consecutive cycles without DLT or an objective disease response. Treatment was administered daily for 28-day cycles until withdrawal from protocol due to toxicity or disease progression.

[2] = test system: relapsed/refractory multiple myeloma (RR–MM); assay: Phase 1 trial of oral NMP: efficacy (IMWG response, progression-free and overall survival); assay type: in vivo, human
Procedure: as §1, §2
Pharmaceutical grade NMP stock solution (Ashland, Columbus, OH, USA) was diluted in ORA SWEET® SF (Medical Flavouring Systems, Vic, Australia) oral syrup vehicle and sterile water to a final concentration of 50 mg/mL and dispensed weekly in amber glass bottles for storage a room temperature. […] Intra-patient dose escalation at 100 mg increments was also permitted whereby the MTD had not been determined and the patient tolerated two consecutive cycles without DLT or an objective disease response. […]
The study was planned to recruit up to 20 patients, 15 in the dose finding cohort and five as a dose expansion. […] Time to progression was calculated from the first day of treatment to progression using the Kaplan–Meier method. Flow cytometry and gene expression data were analysed using GraphPad Prism (version 6.0; GraphPad Software, San Diego, CA). Data were analysed using Wilcoxon’s matched pairs signed rank test compared with baseline samples (*p < 0.05).

With `CN1CCCC1=O` [NMP, N-methyl-2-pyrrolidone] the “grade 5 AEs” value ([1]; 13 patients) was “no grade 5 AEs”, the “Anaemia: Total” value ([1]; human, in vivo) was 23% and the “Anaemia: Total (patients)” value ([1]; human, in vivo) was 3. For the same molecule, the “Anaemia: worst grade 1 (patients)” value ([1]; human, in vivo) was 0, the “Anaemia: worst grade 2 (patients)” value ([1]; human, in vivo) was 1 and the “Anaemia: worst grade 3 (patients)” value ([1]; human, in vivo) was 2. For the same molecule, the “Anaemia: worst grade 4 (patients)” value ([1]; human, in vivo) was 0, the “Anorexia: Total” value ([1]; human, in vivo) was 23% and the “Anorexia: Total (patients)” value ([1]; human, in vivo) was 3. The “Anorexia: worst grade 1 (patients)” value ([1]; human, in vivo) was 0, the “Anorexia: worst grade 2 (patients)” value ([1]; human, in vivo) was 3 and the “Anorexia: worst grade 3 (patients)” value ([1]; human, in vivo) was 0. For the same molecule, the “Anorexia: worst grade 4 (patients)” value ([1]; human, in vivo) was 0, the “Constipation: Total” value ([1]; human, in vivo) was 15% and the “Constipation: Total (patients)” value ([1]; human, in vivo) was 2. The “Constipation: worst grade 1 (patients)” value ([1]; human, in vivo) was 1, the “Constipation: worst grade 2 (patients)” value ([1]; human, in vivo) was 1 and the “Constipation: worst grade 3 (patients)” value ([1]; human, in vivo) was 0. The “Constipation: worst grade 4 (patients)” value ([1]; human, in vivo) was 0, the “Diarrhoea: Total” value ([1]; human, in vivo) was 23% and the “Diarrhoea: Total (patients)” value ([1]; human, in vivo) was 3. The “Diarrhoea: worst grade 1 (patients)” value ([1]; human, in vivo) was 2, the “Diarrhoea: worst grade 2 (patients)” value ([1]; human, in vivo) was 0 and the “Diarrhoea: worst grade 3 (patients)” value ([1]; human, in vivo) was 1. The “Diarrhoea: worst grade 4 (patients)” value ([1]; human, in vivo) was 0, the “Dizziness: Total” value ([1]; human, in vivo) was 23% and the “Dizziness: Total (patients)” value ([1]; human, in vivo) was 3. The “Dizziness: worst grade 1 (patients)” value ([1]; human, in vivo) was 2, the “Dizziness: worst grade 2 (patients)” value ([1]; human, in vivo) was 1 and the “Dizziness: worst grade 3 (patients)” value ([1]; human, in vivo) was 0. For the same molecule, the “Dizziness: worst grade 4 (patients)” value ([1]; human, in vivo) was 0, the “Dysgeusia: Total” value ([1]; human, in vivo) was 15% and the “Dysgeusia: Total (patients)” value ([1]; human, in vivo) was 2. The “Dysgeusia: worst grade 1 (patients)” value ([1]; human, in vivo) was 2, the “Dysgeusia: worst grade 2 (patients)” value ([1]; human, in vivo) was 0 and the “Dysgeusia: worst grade 3 (patients)” value ([1]; human, in vivo) was 0. The “Dysgeusia: worst grade 4 (patients)” value ([1]; human, in vivo) was 0, the “Fatigue: Total” value ([1]; human, in vivo) was 23% and the “Fatigue: Total (patients)” value ([1]; human, in vivo) was 3. The “Fatigue: worst grade 1 (patients)” value ([1]; human, in vivo) was 3, the “Fatigue: worst grade 2 (patients)” value ([1]; human, in vivo) was 0 and the “Fatigue: worst grade 3 (patients)” value ([1]; human, in vivo) was 0. The “Fatigue: worst grade 4 (patients)” value ([1]; human, in vivo) was 0, the “Fever: Total” value ([1]; human, in vivo) was 15% and the “Fever: Total (patients)” value ([1]; human, in vivo) was 2. For the same molecule, the “Fever: worst grade 1 (patients)” value ([1]; human, in vivo) was 0, the “Fever: worst grade 2 (patients)” value ([1]; human, in vivo) was 0 and the “Fever: worst grade 3 (patients)” value ([1]; human, in vivo) was 1. The “Fever: worst grade 4 (patients)” value ([1]; human, in vivo) was 1, the “Grade 3–4 adverse events, patients” value ([1]; human, in vivo) was 54% and the “Musculoskeletal pain: Total” value ([1]; human, in vivo) was 38%. The “Musculoskeletal pain: Total (patients)” value ([1]; human, in vivo) was 5, the “Musculoskeletal pain: worst grade 1 (patients)” value ([1]; human, in vivo) was 2 and the “Musculoskeletal pain: worst grade 2 (patients)” value ([1]; human, in vivo) was 3. The “Musculoskeletal pain: worst grade 3 (patients)” value ([1]; human, in vivo) was 0, the “Musculoskeletal pain: worst grade 4 (patients)” value ([1]; human, in vivo) was 0 and the “Nausea: Total” value ([1]; human, in vivo) was 54%. The “Nausea: Total (patients)” value ([1]; human, in vivo) was 7, the “Nausea: worst grade 1 (patients)” value ([1]; human, in vivo) was 1 and the “Nausea: worst grade 2 (patients)” value ([1]; human, in vivo) was 6. For the same molecule, the “Nausea: worst grade 3 (patients)” value ([1]; human, in vivo) was 0, the “Nausea: worst grade 4 (patients)” value ([1]; human, in vivo) was 0 and the “Neutrophil count decreased: Total (patients)” value ([1]; human, in vivo) was 3. The “Neutrophil count decreased: worst grade 1 (patients)” value ([1]; human, in vivo) was 0, the “Neutrophil count decreased: worst grade 2 (patients)” value ([1]; human, in vivo) was 1 and the “Neutrophil count decreased: worst grade 3 (patients)” value ([1]; human, in vivo) was 2. The “Neutrophil count decreased: worst grade 4 (patients)” value ([1]; human, in vivo) was 0, the “Overall adverse events: Total” value ([1]; human, in vivo) was 100% and the “Overall adverse events: Total (patients)” value ([1]; human, in vivo) was 13. For the same molecule, the “Overall adverse events: worst grade 1 (patients)” value ([1]; human, in vivo) was 1, the “Overall adverse events: worst grade 2 (patients)” value ([1]; human, in vivo) was 5 and the “Overall adverse events: worst grade 3 (patients)” value ([1]; human, in vivo) was 6. The “Overall adverse events: worst grade 4 (patients)” value ([1]; human, in vivo) was 1, the “Peripheral sensory neuropathy: Total” value ([1]; human, in vivo) was 23% and the “Peripheral sensory neuropathy: Total (patients)” value ([1]; human, in vivo) was 3. The “Peripheral sensory neuropathy: worst grade 1 (patients)” value ([1]; human, in vivo) was 0, the “Peripheral sensory neuropathy: worst grade 2 (patients)” value ([1]; human, in vivo) was 3 and the “Peripheral sensory neuropathy: worst grade 3 (patients)” value ([1]; human, in vivo) was 0. The “Peripheral sensory neuropathy: worst grade 4 (patients)” value ([1]; human, in vivo) was 0, the “Pruritus: Total” value ([1]; human, in vivo) was 15% and the “Pruritus: Total (patients)” value ([1]; human, in vivo) was 2. The “Pruritus: worst grade 1 (patients)” value ([1]; human, in vivo) was 2, the “Pruritus: worst grade 2 (patients)” value ([1]; human, in vivo) was 0 and the “Pruritus: worst grade 3 (patients)” value ([1]; human, in vivo) was 0. For the same molecule, the “Pruritus: worst grade 4 (patients)” value ([1]; human, in vivo) was 0, the “Renal dysfunction: Total” value ([1]; human, in vivo) was 15% and the “Renal dysfunction: Total (patients)” value ([1]; human, in vivo) was 2. For the same molecule, the “Renal dysfunction: worst grade 1 (patients)” value ([1]; human, in vivo) was 0, the “Renal dysfunction: worst grade 2 (patients)” value ([1]; human, in vivo) was 0 and the “Renal dysfunction: worst grade 3 (patients)” value ([1]; human, in vivo) was 2. The “Renal dysfunction: worst grade 4 (patients)” value ([1]; human, in vivo) was 0, the “Sore throat: Total” value ([1]; human, in vivo) was 15% and the “Sore throat: Total (patients)” value ([1]; human, in vivo) was 2. For the same molecule, the “Sore throat: worst grade 1 (patients)” value ([1]; human, in vivo) was 2, the “Sore throat: worst grade 2 (patients)” value ([1]; human, in vivo) was 0 and the “Sore throat: worst grade 3 (patients)” value ([1]; human, in vivo) was 0. The “Sore throat: worst grade 4 (patients)” value ([1]; human, in vivo) was 0, the “URTI: Total” value ([1]; human, in vivo) was 15% and the “URTI: Total (patients)” value ([1]; human, in vivo) was 2. The “URTI: worst grade 1 (patients)” value ([1]; human, in vivo) was 0, the “URTI: worst grade 2 (patients)” value ([1]; human, in vivo) was 2 and the “URTI: worst grade 3 (patients)” value ([1]; human, in vivo) was 0. For the same molecule, the “URTI: worst grade 4 (patients)” value ([1]; human, in vivo) was 0, the “overall DLT rate” value ([1]; human, in vivo) was 8% and the “maximum tolerated dose (MTD)” value ([1]; human, in vivo, po) was “not defined”. For the same molecule, the “dose limiting toxicity (DLT) event” value ([1]; in vivo) was “diarrhoea”, the Median overall survival ([2]; 13 RR–MM patients, 95% CI 9.7– > 44.5 months, median follow-up 43.5 months) was 33.1 months and 33 months and the Median progression-free survival ([2]; 13 RR–MM patients, range 29–539 days) was 57 days. For the same molecule, the “IMWG objective disease response (partial response or better), ORR” value ([2]; 13 patients, 95% CI 0–25%) was 0% and the “best response of stable disease (SD), patients” value ([2]; nine of 13 patients, 95% CI 39–91%) was 69%.
